In PubChem BioAssay (NCI):
“And” between values parts separate entries of the source, which are not always exact repeats. Equal values may be shown once.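 Step 1: Grow cells in 96-well plates. Step 2: Expose to compound for 48 hours at 5 concentrations. Step 3: Interpolate endpoints linearly; if unreached, use highest concentration. Here, GI50 denotes the concentration required for 50% inhibition of growth. The concentration for full growth arrest is given as TGI.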

How the values were obtained:
Assay in all cases: growth of human tumour cells (NCI), 48 h
HOP-62 NSCLC = test system: HOP-62 NSCLC
HT29 colon = test system: HT29 colon
SK-MEL-28 melanoma = test system: SK-MEL-28 melanoma
CCRF-CEM leukemia = test system: CCRF-CEM leukemia
SNB-75 CNS = test system: SNB-75 CNS
SK-MEL-2 melanoma = test system: SK-MEL-2 melanoma
MOLT-4 leukemia = test system: MOLT-4 leukemia
OVCAR-3 ovarian = test system: OVCAR-3 ovarian
UACC-62 melanoma = test system: UACC-62 melanoma
BT-549 breast = test system: BT-549 breast

## COc1ccc(C2C(C)C(=O)C(C)C(c3ccc(OC)cc3)N2N=O)cc1 (stereo unspecified)
HOP-62 NSCLC
  GI50: 24.8 µM and 23.9 µM
  TGI: > 80 µM and 60.7 µM and 293 µM
HT29 colon
  TGI: > 1000 µM
SK-MEL-28 melanoma
  GI50: > 750 µM
  TGI: > 1000 µM
CCRF-CEM leukemia
  TGI: > 1000 µM
SNB-75 CNS
  GI50: 5.93 µM
  TGI: 20.4 µM and 80 µM and 57.8 µM
SK-MEL-2 melanoma
  TGI: 602 µM
MOLT-4 leukemia
  TGI: > 1000 µM
OVCAR-3 ovarian
  GI50: > 750 µM
  TGI: > 1000 µM
UACC-62 melanoma
  GI50: > 750 µM
  TGI: > 750 µM

## CC(C)NC(=O)CCN(C(=O)O)S(=O)(=O)c1ccc(NC(=O)c2ccccc2)cc1
HOP-62 NSCLC
  TGI: > 100 µM
HT29 colon
  TGI: > 100 µM
SK-MEL-28 melanoma
  TGI: > 100 µM
CCRF-CEM leukemia
  TGI: > 63.4 µM
SNB-75 CNS
  TGI: > 100 µM
SK-MEL-2 melanoma
  TGI: > 100 µM
MOLT-4 leukemia
  TGI: > 57.9 µM
OVCAR-3 ovarian
  TGI: > 100 µM
UACC-62 melanoma
  TGI: > 82.7 µM

## COc1cc([N+](=O)[O-])c(OC)cc1-c1nc2sc(Cl)cn2c1/C=N/NC1=NCCN1
BT-549 breast
  GI50: 2.69 µM
  TGI: 5.95 µM
HOP-62 NSCLC
  GI50: 1.2 µM
  TGI: 2.53 µM
HT29 colon
  GI50: 0.269 µM
SK-MEL-2 melanoma
  GI50: 22.9 µM
  TGI: > 100 µM
OVCAR-3 ovarian
  GI50: 0.882 µM
  TGI: 2.62 µM

## CC(=O)[CH-]C(=O)c1ccccc1.CC(=O)[CH-]C(=O)c1ccccc1.C[C@]12CCC(=O)C=C1CC[C@@H]1C2CC[C@@]2(C)C1CC[C@@H]2[O-].C[C@]12CCC(=O)C=C1CC[C@@H]1C2CC[C@@]2(C)C1CC[C@@H]2[O-].Cl.[Ti+4] (stereo partly specified)
HOP-62 NSCLC
  GI50: 20.6 µM
  TGI: 59.9 µM
HT29 colon
  GI50: 17.5 µM
  TGI: 37.2 µM
SK-MEL-28 melanoma
  GI50: 32.9 µM
  TGI: > 100 µM
CCRF-CEM leukemia
  GI50: 23.8 µM
  TGI: > 100 µM
SK-MEL-2 melanoma
  GI50: 12.7 µM
  TGI: 31.4 µM
MOLT-4 leukemia
  GI50: 35.3 µM
  TGI: > 100 µM
OVCAR-3 ovarian
  GI50: 13.2 µM
  TGI: 65.5 µM
UACC-62 melanoma
  GI50: 6.67 µM
  TGI: 33.8 µM

## CCNC(=O)O/N=C1\CCC2[C@@H]3CC=C4C[C@@H](OC5CCCCO5)CC[C@]4(C)C3CC[C@]12C (stereo partly specified)
HOP-62 NSCLC
  TGI: > 100 µM
HT29 colon
  TGI: 13.3 µM
SK-MEL-28 melanoma
  TGI: 10.8 µM
SK-MEL-2 melanoma
  TGI: 5.68 µM
MOLT-4 leukemia
  TGI: 3.87 µM
OVCAR-3 ovarian
  TGI: 10.7 µM
UACC-62 melanoma
  TGI: 3.94 µM

## COc1cc(/C=C2\C[C@H]3[C@@H]4CC=C5C[C@@H](O)CC[C@]5(C)[C@H]4CC[C@]3(C)[C@H]2O)ccc1OCCCn1ccnc1
HOP-62 NSCLC
  GI50: 3.45 µM
  TGI: 20 µM
HT29 colon
  GI50: 2.68 µM
  TGI: > 50 µM
SK-MEL-28 melanoma
  GI50: 10.2 µM
  TGI: > 50 µM
SK-MEL-2 melanoma
  GI50: 32.7 µM
  TGI: > 50 µM
MOLT-4 leukemia
  GI50: > 50 µM
  TGI: > 50 µM
OVCAR-3 ovarian
  GI50: 0.946 µM
  TGI: 2.9 µM
UACC-62 melanoma
  GI50: 1.59 µM
  TGI: 6.65 µM

## COc1ccc(/C=C/C(=O)c2ccc(OC)c(OC)c2)cc1O
BT-549 breast
  GI50: 5.5 µM
  TGI: 17.4 µM
HOP-62 NSCLC
  GI50: 3.61 µM
  TGI: 14.5 µM
HT29 colon
  GI50: 5.91 µM
  TGI: 20.5 µM
SK-MEL-28 melanoma
  GI50: 12.9 µM
  TGI: 27.4 µM
CCRF-CEM leukemia
  GI50: 3.51 µM
  TGI: 23.9 µM
SK-MEL-2 melanoma
  GI50: 14.9 µM
  TGI: 32.9 µM
MOLT-4 leukemia
  GI50: 4.32 µM
  TGI: 26.1 µM
OVCAR-3 ovarian
  GI50: 2.56 µM
  TGI: 6.31 µM
UACC-62 melanoma
  GI50: 11.2 µM
  TGI: 24.3 µM

## Clc1cc(Cl)cc(N2N=C(c3cccc(Nc4ccncc4)c3)CC2c2ccc3c(c2)OCO3)c1 (stereo unspecified)
BT-549 breast
  GI50: 1.7 µM
  TGI: 3.3 µM
HOP-62 NSCLC
  GI50: 1.79 µM
  TGI: 3.64 µM
HT29 colon
  GI50: 2.14 µM
  TGI: 4.72 µM
SK-MEL-28 melanoma
  GI50: 1.84 µM
  TGI: 3.36 µM
CCRF-CEM leukemia
  GI50: 2.72 µM
  TGI: 18.4 µM
SNB-75 CNS
  GI50: 1.38 µM
  TGI: 2.99 µM
MOLT-4 leukemia
  GI50: 1.88 µM
  TGI: 4.49 µM
OVCAR-3 ovarian
  GI50: 1.73 µM
  TGI: 3.27 µM
UACC-62 melanoma
  GI50: 1.71 µM
  TGI: 3.17 µM

## OCCN1CCN2C=C(C3CCCC4N(CCO)CCN34)CCC21 (stereo unspecified)
HOP-62 NSCLC
  TGI: > 100 µM
HT29 colon
  TGI: > 100 µM
SK-MEL-28 melanoma
  TGI: > 100 µM
CCRF-CEM leukemia
  TGI: 36.3 µM
SNB-75 CNS
  TGI: > 100 µM
SK-MEL-2 melanoma
  TGI: > 75.6 µM
MOLT-4 leukemia
  TGI: 53.6 µM
OVCAR-3 ovarian
  TGI: > 100 µM
UACC-62 melanoma
  TGI: > 93.9 µM

## Cc1ccccc1-n1c2nc(=O)n(C)c(=O)c-2nc2ccccc21
HOP-62 NSCLC
  TGI: > 100 µM
HT29 colon
  TGI: 14.3 µM
CCRF-CEM leukemia
  TGI: 40.4 µM
SNB-75 CNS
  TGI: 39.9 µM
SK-MEL-2 melanoma
  TGI: 32.5 µM
MOLT-4 leukemia
  TGI: 39.7 µM
OVCAR-3 ovarian
  TGI: 6.94 µM
UACC-62 melanoma
  TGI: 9.78 µM

## CCCCCCCCCCCCOC1C(CNC(=O)C2OC3OC(C)(C)OC3C2NC(=O)Nc2ccc(CC(=O)NC(Cc3ccccc3)C(=O)O)cc2)OC2OC(C)(C)OC21 (stereo unspecified)
BT-549 breast
  GI50: 22.7 µM
  TGI: > 25 µM
HOP-62 NSCLC
  GI50: > 25 µM
  TGI: > 25 µM
HT29 colon
  GI50: > 25 µM
  TGI: > 25 µM
SK-MEL-28 melanoma
  GI50: > 25 µM
  TGI: > 25 µM
SNB-75 CNS
  GI50: > 25 µM
  TGI: > 25 µM
SK-MEL-2 melanoma
  GI50: > 25 µM
  TGI: > 25 µM
MOLT-4 leukemia
  GI50: > 25 µM
  TGI: > 25 µM
OVCAR-3 ovarian
  GI50: > 25 µM
  TGI: > 25 µM
UACC-62 melanoma
  GI50: > 25 µM
  TGI: > 25 µM

## Cc1ccc(NC(=O)/C(Cl)=C(/Cl)C(=O)O)cc1
HOP-62 NSCLC
  TGI: > 100 µM
HT29 colon
  TGI: 35 µM
SK-MEL-28 melanoma
  TGI: 33 µM
CCRF-CEM leukemia
  TGI: 5.75 µM
SNB-75 CNS
  TGI: 34.1 µM
SK-MEL-2 melanoma
  TGI: 37.6 µM
MOLT-4 leukemia
  TGI: 43.5 µM
OVCAR-3 ovarian
  TGI: 32.4 µM
UACC-62 melanoma
  TGI: 29.7 µM

## CN1CCN(C)C12C=CC=CC21CC1
HOP-62 NSCLC
  TGI: > 100 µM
HT29 colon
  TGI: > 100 µM
CCRF-CEM leukemia
  TGI: > 100 µM
SNB-75 CNS
  TGI: > 100 µM
SK-MEL-2 melanoma
  TGI: > 100 µM
MOLT-4 leukemia
  TGI: > 100 µM
OVCAR-3 ovarian
  TGI: > 100 µM
UACC-62 melanoma
  TGI: > 100 µM

## Cc1ccc2c(c1)S(=O)(=O)c1ccc3ccccc3c1N2
BT-549 breast
  TGI: > 100 µM
HOP-62 NSCLC
  TGI: > 100 µM
HT29 colon
  TGI: > 100 µM
SK-MEL-28 melanoma
  TGI: > 100 µM
CCRF-CEM leukemia
  TGI: > 100 µM
SK-MEL-2 melanoma
  TGI: > 100 µM
MOLT-4 leukemia
  TGI: > 100 µM
OVCAR-3 ovarian
  TGI: > 100 µM
UACC-62 melanoma
  TGI: > 100 µM

## Clc1ccc(-c2c(C3=NCCCN3)nnn2-c2ccccc2)cc1
HOP-62 NSCLC
  TGI: > 100 µM
HT29 colon
  TGI: > 100 µM
SK-MEL-28 melanoma
  TGI: > 100 µM
CCRF-CEM leukemia
  TGI: > 100 µM
SNB-75 CNS
  TGI: > 100 µM
SK-MEL-2 melanoma
  TGI: > 100 µM
MOLT-4 leukemia
  TGI: > 100 µM
OVCAR-3 ovarian
  TGI: > 100 µM
UACC-62 melanoma
  TGI: > 100 µM

## NN1C(=O)C(CCO)S/C1=N/N=C1/SC(CCO)C(=O)N1N (stereo unspecified)
HOP-62 NSCLC
  TGI: > 100 µM
HT29 colon
  TGI: > 100 µM
SK-MEL-28 melanoma
  TGI: > 100 µM
CCRF-CEM leukemia
  TGI: > 100 µM
SNB-75 CNS
  TGI: > 100 µM
SK-MEL-2 melanoma
  TGI: > 100 µM
MOLT-4 leukemia
  TGI: > 100 µM
OVCAR-3 ovarian
  TGI: > 100 µM
UACC-62 melanoma
  TGI: > 100 µM

## NNC(=O)N/N=C1\C(=O)N(c2ccc(Cl)c(Cl)c2)C(=O)C(=O)C1c1nc2ccccc2s1 (stereo unspecified)
HOP-62 NSCLC
  TGI: > 100 µM
HT29 colon
  TGI: > 100 µM
SK-MEL-28 melanoma
  TGI: > 100 µM
CCRF-CEM leukemia
  TGI: > 100 µM
SNB-75 CNS
  TGI: > 100 µM
SK-MEL-2 melanoma
  TGI: > 100 µM
MOLT-4 leukemia
  TGI: > 100 µM
OVCAR-3 ovarian
  TGI: > 100 µM
UACC-62 melanoma
  TGI: > 100 µM

## NC(N)=N/N=C/c1ccc(-c2ccc(-c3cc(Cl)cc(Cl)c3)s2)cc1
BT-549 breast
  GI50: 2.37 µM
  TGI: 7.02 µM
HOP-62 NSCLC
  GI50: 1.79 µM
  TGI: 4.05 µM
HT29 colon
  GI50: 1.91 µM
  TGI: 4.81 µM
SK-MEL-28 melanoma
  GI50: 1.8 µM
  TGI: 3.51 µM
CCRF-CEM leukemia
  GI50: 1.65 µM
  TGI: 4.62 µM
SK-MEL-2 melanoma
  GI50: 2.08 µM
  TGI: 4.77 µM
MOLT-4 leukemia
  GI50: 1.72 µM
  TGI: 4.3 µM
OVCAR-3 ovarian
  GI50: 1.71 µM
  TGI: 3.27 µM
UACC-62 melanoma
  GI50: 1.85 µM
  TGI: 3.72 µM
